In patent publication US20030082200A1, “52 kda protein from coagulase negative staphylococci and fragments thereof” (priority 2000, published 2003):

What was measured:
[1] = tested on: immobilized Vn binding to S. epidermidis strain BD5703; assay: Inhibition test: binding of 3H-labeled bacteria to Vn coated wells; format: cell-based, Staphylococcus epidermidis; conditions: for Effect on BD5703 binding of immobilized Vn (in words): component added at the same time as bacteria
Description: (§1) ^3H-labeled bacteria were used for these tests. In brief, half a milliliter of an overnight cultured bacteria in TH broth was diluted in 5 ml TH broth containing 50 μCi of [methyl-^3H]thymidine (Amersham Plc., Buckinghamshire, UJK) and cultured for 5 hours at 37° C. on a gyrator shaker with vigorous agitation.
In another experiment, 50 μl bacteria (2×10^7cfu/ml) were mixed with the same volume of four mono-carbohydrates (0.1M D-fucose, 0.1M D-galactose, 0.1M D-glucose and 0.1M D-mannose), heparin (2 mg/ml), hyaluronic acid (2 mg/ml) or Vn (20 μg/ml). These mixtures with bacteria were incubated for 1 hour at 37° C. Heparin sodium salt and hyaluronic acid were purchased from Fluka Chemie AG, Buchs, Switzerland)
(§2) Finally, all wells were washed by PBS 5 times, individual wells were removed and immersed in 2.5 ml scintillation fluid (BDH chemicals, Pool, UK) and the radioactivity was counted in a liquid scintillation counter (Beckman Instruments, Fullerton, Calif., USA). Quantitation of relative binding percentage was achieved by the radioactivity from experimental groups in relation to the radioactivity from non-treated group.

52 kDa protein of BD5703 = assay: Autoradiograph inhibition test: labeled Vn binding to blotted surface proteins; parameters: species or system Staphylococcus epidermidis; conditions: competing proteins 10 μg/ml; heparin, hyaluronic acid 1 mg/ml; autoradiography
Description: (§3) SDS-PAGE was performed on mini-Protean II cell (Bio-Rad, Richmond, Calif.) as previously described (16). The bacterial surface structures were extracted by 1M lithium chloride (pH 5) with protease inhibitor (Boehringer Mannheim, Mannheim, Germany) at 37° C. for 2 hours with end to end rotation. Extract was subjected to homogenous gel (12%) or gradient gel (4-15%) electrophoresis. The running and transfer conditions were as previously described (17).
(§4) The PDVF membranes (Micron Separations INC., Westborough, USA) were saturated with incubation in blocking buffers I and II (buffer I containing 0.6% ethanolamine, 0.9% glycine, 1% polyvinylpyrrolidone and 25% methanol pH 9.6; buffer II containing 0.6% ethanolamine, 0.9% glycine, 0.05% gelatin hydrolysate and 0.125% Tween 20 pH 9.6) for 15 min respectively (18). Saturated membranes were rinsed three times in PBST (PBS with 1% Tween 20). Then, the membranes were incubated with ^125I-labeled Vn (0.4 μg/ml) in PBST or in PBST supplemented with 1.05 M sodium chloride (final sodium chloride concentration 1.2M) overnight at 20° C. The membranes were washed and dried, then examined by autoradiography with X-Omat AR film (Eastman Kodak) after 3 days storage at −70° C.
(§5) For inhibition tests, the membrane with retained bacterial surface molecules was cut to individual strips, and then incubated with labeled Vn (0.4 μg/ml) in PBST mixed with different unlabeled competing molecules, including Vn (10 μg/ml), fibronectin (10 μg/ml), fibrinogen (10μg/ml), thrombospondin ([…]), plasminogen (10 μg/ml), human immunoglobulins (10 μg/ml), hemopexin (10 μg/ml), heparin (1 mg/ml). In a separate experiment, the strips were preincubated with heparin (1 mg/ml) and hyaluronic acid (1 mg/ml) for 1 hour at 20° C. prior to adding labeled Vn.

38 kDa protein of BD5703 = assay: as above; parameters: species or system Staphylococcus epidermidis; conditions: competing proteins 10 μg/ml; heparin, hyaluronic acid 1 mg/ml; autoradiography
Description: as §3, §4, §5

21 kDa protein of BD5703 = assay: as above; parameters: species or system Staphylococcus epidermidis; conditions: competing proteins 10 μg/ml; heparin, hyaluronic acid 1 mg/ml; autoradiography
Description: as §3, §4, §5

16 kDa protein of BD5703 = assay: as above; parameters: species or system Staphylococcus epidermidis; conditions: competing proteins 10 μg/ml; heparin, hyaluronic acid 1 mg/ml; autoradiography
Description: as §3, §4, §5

[2] = tested on: immobilized Vn binding to S. epidermidis strain BD5703; assay: Inhibition test: binding of 3H-labeled bacteria to Vn coated wells; format: cell-based, Staphylococcus epidermidis
BD5703 surface proteins = assay: Autoradiograph inhibition test: labeled Vn binding to blotted surface proteins; parameters: species or system Staphylococcus epidermidis; conditions: unlabeled Vn 10 μg/ml; autoradiography
Description: as §3, §4, §5

[3] = tested on: immobilized S. epidermidis strain BD5703; assay: Binding of soluble 125I-labeled Vn to cells immobilized on ELISA plate wells; parameters: species or system Staphylococcus epidermidis; conditions: two-fold diluted 125I-Vn, maximally 5 μg/ml; FIG. 1
Description: (§6) Fifty micrograms of Vn was labeled with Na ^125I (Amersham Plc., Buckinghamshire, UK) using the modified chloramine-T method (specificity, 1×10^6 cpm/μg), and used in a minor modified soluble binding test with final reaction volume of 150 μl in PBS (15). During binding experiments, radiolabeled protein were diluted to approx. 0.025 μg (25,000cpm) and incubated with bacteria (10^9 cells per test tube). In an alternative method, cells of BD5703 were immobilized on ELISA plates (Costar Co., Cambridge, USA) by incubating 100 μl of bacterial suspension (2×10^7 cells in PBS) for 30 min at 37° C. Non-attached bacteria were removed by 3 washes with PBS. The remaining sites on the plastic were blocked by 2%, a bovine serum albumin in PBS (BSA-PBS) for 1 hour at 37° C. The wells were washed with PBS, and two-fold diluted ^125I-labeled Vn in 1% BSA-PBS (maximally 5 μg/ml) was added. Wells coated with 1% BSA served as background. After incubation at 37° C. for 45 min and washes with PBS, individual wells were removed and the radioactivity was measured in a gamma counter (LKB-Wallac, Turku, Finland).

S. aureus strain V8 = assay: Bacterial binding of soluble 125I-labeled Vn; parameters: species or system Staphylococcus aureus; conditions: reference strain V8
Description: as §6

[4] = tested on: S. epidermidis strain BD5703; assay: Bacterial binding of soluble 125I-labeled Vn; parameters: species or system Staphylococcus epidermidis; conditions: less than 5% is considered as negative binding
Description: as §6

S. epidermidis BD5703 = assay: Proteolytic treatment of bacterial cells, binding of immobilized Vn; format: cell-based, Staphylococcus epidermidis; conditions: BD5703 cells treated with protease; non-treated control = 100
Description: as §1
(§7) 3H-labeled bacteria cells (5×10^8) were suspended in 1 ml PBS heated at 100° C. for 30 min and rapidly cooled. The same amount of bacteria was treated by pronase E, protease K and trypsin (Sigma Chemical Co., St. Louis, USA) as previously described (15). After washes in PBS, 100 μl (1×10^7 cells) treated bacterial suspension were added into the Vn coated wells.
as §2

immobilized Vn = assay: Trypsin treatment of Vn-coated wells, binding assay with 3H labeled bacteria; format: cell-based; conditions: trypsin 2 μg/well, 37° C. for 2 hours
Description: The wells pre-adsorbed with Vn were trypsinized at a concentration of 2 μg/well in PBS with 1 mM CaCl2 (37° C. for 2 hours) following an additional incubation with soybean trypsin inhibitor (4 μg/well) at 37° C. for 30 min in same buffer (15). The wells were then blocked by BSA and subjected to binding assay with ^3H labeled bacteria.

S. aureus V8 = assay: Proteolytic treatment of bacterial cells, binding of immobilized Vn; format: cell-based, Staphylococcus aureus; conditions: V8 cells treated with protease; non-treated control = 100
Description: as §1, §7, §2

[5] = inhibitor 1 mg/ml, added at the same time as bacteria

Compound	Effect on BD5703 binding of immobilized Vn (in words) [1]	Inhibition of labeled Vn binding to the 52 kDa band (52 kDa protein of BD5703)	Inhibition of labeled Vn binding to the 38 kDa band (38 kDa protein of BD5703)	Inhibition of labeled Vn binding to the 16 kDa band (16 kDa protein of BD5703)	other results
C[C@@H](O)[C@H](O)[C@H](O)[C@@H](O)C=O [D-fucose]	not by carbohydrates	–	–	–	–
O=C[C@H](O)[C@@H](O)[C@@H](O)[C@H](O)CO [D-galactose]	not by carbohydrates	–	–	–	–
O=C[C@H](O)[C@@H](O)[C@H](O)[C@H](O)CO [D-glucose]	not by carbohydrates	–	–	–	–
O=C[C@@H](O)[C@@H](O)[C@H](O)[C@H](O)CO [D-mannose]	not by carbohydrates	–	–	–	–
Heparin sodium salt [Heparin 1]	reduced significantly	almost erase	almost erase	almost erase	Inhibition of labeled Vn binding to the 21 kDa band (21 kDa protein of BD5703): not 21 kDa; Inhibitory ability compared to hyaluronic acid ([1]; added at the same time as bacteria): more than 2 fold; Relative binding percentage [1, 5]: 18%; Effect on BD5703 binding of immobilized Vn (in words) ([2]; component preincubated with Vn coated wells): increased the binding; Relative binding percentage ([2]; inhibitor 1 mg/ml, preincubated with Vn coated wells for 2 hours, then bacteria added): 135%
Soluble Vn: human vitronectin, purified; glycoprotein; also used 125I-labeled	–	–	–	–	Inhibition of binding of labeled Vn to BD5703 surface proteins (BD5703 surface proteins): could be inhibited; Binding of 125I-Vn to immobilized cells [3]: dose-related manner; Relative binding percentage ([1]; inhibitor 10 μg/ml, added at the same time as bacteria, control without inhibitor = 100): 40%; Inhibition of binding of immobilized Vn ([1]; soluble Vn added with bacteria): about 60%; Level of binding of radioactively labeled Vn in solution (S. aureus strain V8): 14.2%; Level of binding of radioactively labeled Vn in solution [4]: more than 5%
Trypsin	–	–	–	–	Relative percentage binding of immobilized Vn (S. epidermidis BD5703): 67%; Bacterial binding after trypsin treatment of immobilized Vn (immobilized Vn): no binding was obtained; Relative percentage binding of immobilized Vn (S. aureus V8): 70%
fibrinogen	–	slightly blocked	slightly blocked	slightly blocked	–
fibronectin	–	slightly blocked	slightly blocked	slightly blocked	–
hemopexin: human hemopexin, purified	–	slightly blocked	slightly blocked	slightly blocked	–
hyaluronic acid	reduced significantly	inhibited	inhibited	–	Relative binding percentage [1, 5]: 41%
plasminogen: human plasminogen from Sigma	–	slightly blocked	slightly blocked	slightly blocked	–
thrombospondin: human thrombospondin	–	slightly blocked	slightly blocked	slightly blocked	–
